The text below walks through data of patent US20190192613A1, “COMPOSITION FOR PREVENTING OR TREATING HYPEROXIA-INDUCED LUNG INJURY COMPRISING WKYMVM PEPTIDE AS AN ACTIVE INGREDIENT” (SAMSUNG LIFE PUBLIC WELFARE FOUNDATION, priority 2017, published 2019).

The structures appear in SMILES notation.

Data set [1] is described as follows: Animal death during the hyperoxia experiment. It counts as in vivo, mouse. To be noted: neonatal mice, i.p. every day P5 to P8, entire experiment. As to the method:
Pregnant C57/BL6 wild-type mice (National Experimental Animal Center, Pocheon, Korea) were raised in individual cages by offering a free access to water and food to each mouse, the mice spontaneously gave birth to babies, and then the offsprings were grown in a chamber under hyperoxia (80% O2) conditions (P) or normal oxygen (21% O2) conditions by day 14. At this time, environmental humidity and temperature were maintained at 50% and 24° C., and to investigate the effect of activated FPR2, WKYMVm (SEQ ID NO: 1) or physiological saline (vehicle, 20 μl) was intraperitoneally administered to each mouse every day from P5 to P8. In this case, death of the animals was not observed throughout the entire experimental processes.

For data set [2], the system named is bronchopulmonary dysplasia in neonatal mice. Particulars: Martin et al. 2014; cited from earlier work.

Consider `CSCC[C@H](NC(=O)[C@H](Cc1ccc(O)cc1)NC(=O)[C@H](CCCCN)NC(=O)[C@@H](N)Cc1c[nH]c2ccccc12)C(=O)N[C@H](C(=O)N[C@H](CCSC)C(=O)O)C(C)C` [WKYMVm, Trp-Lys-Tyr-Met-Val-D-Met], for which the “death of the animals” value in data set [1] is reported as “not observed”.
Turning to `CCCCC[C@H](O)/C=C/C=C\C=C\C=C\[C@@H](O)[C@@H](O)CCCC(=O)O` [lipoxin A4], in data set [2], the “alveolar damage caused by bronchopulmonary dysplasia” value was “improve alveolar damage”.
As for `CC/C=C\C[C@H](O)/C=C/C=C\C=C\C=C\[C@@H](O)[C@@H](O)C/C=C\CCC(=O)O` [resolvin D1], the “alveolar damage caused by bronchopulmonary dysplasia” value in data set [2] was “improve alveolar damage”.
